Measurements reported in PubChem BioAssay (NCI).
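Step 1: Grow cells in 96-well plates. Step 2: Expose to compound for 48 hours at 5 concentrations. Step 3: Interpolate endpoints linearly; if unreached, use highest concentration. TGI denotes the concentration required for complete inhibition of growth.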

Legend:
Assay in all cases: inhibition of tumour cell growth, NCI panel, 48 h
[1] = tested on: 786-0 renal
[2] = tested on: A498 renal
[3] = tested on: A549 NSCLC
[4] = tested on: ACHN renal
[5] = tested on: BT-549 breast
[6] = tested on: CAKI-1 renal
[7] = tested on: CCRF-CEM leukemia
[8] = tested on: COLO 205 colon
[9] = tested on: DU-145 prostate
[10] = tested on: EKVX NSCLC
[11] = tested on: HCC-2998 colon
[12] = tested on: HCT-116 colon
[13] = tested on: HCT-15 colon
[14] = tested on: HL-60(TB) leukemia
[15] = tested on: HOP-62 NSCLC
[16] = tested on: HOP-92 NSCLC
[17] = tested on: HS 578T breast
[18] = tested on: HT29 colon
[19] = tested on: IGROV1 ovarian
[20] = tested on: K-562 leukemia
[21] = tested on: KM12 colon
[22] = tested on: LOX IMVI melanoma
[23] = tested on: M14 melanoma
[24] = tested on: MALME-3M melanoma
[25] = tested on: MCF7 breast
[26] = tested on: MDA-MB-231 breast
[27] = tested on: MDA-MB-435
[28] = tested on: MDA-N
[29] = tested on: MOLT-4 leukemia
[30] = tested on: NCI-H226 lung
[31] = tested on: NCI-H23 lung
[32] = tested on: NCI-H460 lung
[33] = tested on: NCI-H522 lung
[34] = tested on: NCI/ADR-RES ovarian
[35] = tested on: OVCAR-3 ovarian
[36] = tested on: OVCAR-4 ovarian
[37] = tested on: OVCAR-5 ovarian
[38] = tested on: OVCAR-8 ovarian
[39] = tested on: PC-3 prostate
[40] = tested on: RPMI-8226 leukemia
[41] = tested on: RXF 393 renal
[42] = tested on: SF-268 CNS
[43] = tested on: SF-295 CNS
[44] = tested on: SF-539 CNS
[45] = tested on: SK-MEL-2 melanoma
[46] = tested on: SK-MEL-28 melanoma
[47] = tested on: SK-MEL-5 melanoma
[48] = tested on: SK-OV-3 ovarian
[49] = tested on: SN12C renal
[50] = tested on: SNB-19 CNS
[51] = tested on: SNB-75 CNS
[52] = tested on: SR leukemia
[53] = tested on: SW-620 colon
[54] = tested on: T-47D breast
[55] = tested on: TK-10 renal
[56] = tested on: U251 CNS
[57] = tested on: UACC-257 melanoma
[58] = tested on: UACC-62 melanoma
[59] = tested on: UO-31 renal

CC(=O)Oc1ccc(/C=C/C(=O)OCCOC(=O)/C=C/c2ccc(OC(C)=O)c(OC(C)=O)c2)cc1OC(C)=O
TGI [1]: 22.3 µM | TGI [2]: 52.5 µM | TGI [3]: 50.3 µM | TGI [4]: 35.8 µM | TGI [5]: 53 µM | TGI [6]: 11.6 µM | TGI [7]: 6.12 µM | TGI [8]: 28.2 µM | TGI [9]: 28.6 µM | TGI [10]: 45 µM | TGI [11]: 28.6 µM | TGI [12]: 20.9 µM | TGI [13]: 33.8 µM | TGI [14]: > 44.6 µM | TGI [15]: 5.23 µM | TGI [16]: 26.7 µM | TGI [17]: 62.7 µM | TGI [18]: > 56.7 µM | TGI [19]: 10.7 µM | TGI [20]: > 100 µM | TGI [21]: 22.1 µM | TGI [22]: 16.3 µM | TGI [23]: 25.3 µM | TGI [24]: 30.1 µM | TGI [25]: 28.6 µM | TGI [26]: 52.4 µM | TGI [27]: 28 µM | TGI [28]: 23.5 µM | TGI [29]: > 38.5 µM | TGI [30]: 41.5 µM | TGI [31]: 18.7 µM | TGI [32]: 32 µM | TGI [33]: 17 µM | TGI [34]: 16.3 µM | TGI [35]: > 28.6 µM | TGI [36]: 28.4 µM | TGI [37]: > 60.1 µM | TGI [38]: 35 µM | TGI [39]: 58.8 µM | TGI [40]: 24.5 µM | TGI [41]: 21.3 µM | TGI [42]: 56.5 µM | TGI [43]: 25.4 µM | TGI [44]: 13.4 µM | TGI [45]: 55.6 µM | TGI [46]: 29.4 µM | TGI [47]: 20.1 µM | TGI [48]: 35 µM | TGI [49]: 69 µM | TGI [50]: > 77.9 µM | TGI [51]: 22.5 µM | TGI [52]: 20.7 µM | TGI [53]: 49 µM | TGI [54]: 43 µM | TGI [55]: 37.2 µM | TGI [56]: 22.1 µM | TGI [57]: 22.6 µM | TGI [58]: 16.3 µM | TGI [59]: 15.3 µM

CC(C)NC(=O)OCc1c(COC(=O)NC(C)C)c(-c2cc[n+](COC(=O)C(C)C)cc2)n2c1CCC2
TGI [1]: > 100 µM | TGI [2]: 35.9 µM | TGI [3]: > 100 µM | TGI [4]: > 82.7 µM | TGI [5]: > 100 µM | TGI [6]: > 94.8 µM | TGI [7]: > 100 µM | TGI [8]: > 100 µM | TGI [9]: > 100 µM | TGI [10]: > 100 µM | TGI [11]: > 100 µM | TGI [12]: > 100 µM | TGI [13]: > 100 µM | TGI [14]: > 77.7 µM | TGI [15]: > 100 µM | TGI [16]: > 100 µM | TGI [17]: > 100 µM | TGI [18]: > 100 µM | TGI [19]: > 100 µM | TGI [20]: > 100 µM | TGI [21]: > 100 µM | TGI [22]: > 100 µM | TGI [23]: > 100 µM | TGI [24]: > 100 µM | TGI [25]: > 100 µM | TGI [26]: > 100 µM | TGI [27]: > 100 µM | TGI [28]: > 100 µM | TGI [29]: 99.2 µM | TGI [30]: > 100 µM | TGI [31]: > 100 µM | TGI [32]: > 100 µM | TGI [33]: > 100 µM | TGI [34]: > 100 µM | TGI [35]: > 100 µM | TGI [36]: > 100 µM | TGI [37]: > 100 µM | TGI [38]: > 100 µM | TGI [39]: > 100 µM | TGI [40]: > 100 µM | TGI [41]: 62.5 µM | TGI [42]: > 100 µM | TGI [43]: > 100 µM | TGI [44]: > 100 µM | TGI [45]: > 100 µM | TGI [46]: > 100 µM | TGI [47]: > 100 µM | TGI [48]: > 100 µM | TGI [49]: > 100 µM | TGI [50]: > 100 µM | TGI [51]: > 100 µM | TGI [52]: > 63.3 µM | TGI [53]: > 100 µM | TGI [54]: > 100 µM | TGI [55]: > 100 µM | TGI [56]: > 100 µM | TGI [57]: > 100 µM | TGI [58]: > 100 µM | TGI [59]: > 100 µM
